Test results: ChEMBL document CHEMBL2074394, “Multispecific organic anion transporter is responsible for the biliary excretion of the camptothecin derivative irinotecan and its metabolites in rats” (J Pharmacol Exp Ther, 1997)

Tests used:
[1] = biological target: T1, ATP-binding cassette sub-family C member 2 (Rattus norvegicus, UniProt Q63120); assay: TP_TRANSPORTER: uptake in bile canalicular membrane vesicles (EHBR); format: functional, cell membranes, Bile canalicular membrane vesicle
[2] = biological target: T1, ATP-binding cassette sub-family C member 2; assay: TP_TRANSPORTER: uptake in bile canalicular membrane vesicles (SD); format: functional, cell membranes, Sprague-Dawley, Bile canalicular membrane vesicle
[3] = biological target: T1, ATP-binding cassette sub-family C member 2; assay: TP_TRANSPORTER: inhibition of DNP-SG uptake in bile canalicular membrane vesicles from SD rat; format: functional, cell membranes, Sprague-Dawley, Bile canalicular membrane vesicle
[4] = biological target: T1, ATP-binding cassette sub-family C member 2; assay: TP_TRANSPORTER: uptake in canalicular membrane vesicles of liver (EHBR); format: functional, cell membranes, Canalicular membrane vesicle
[5] = biological target: T1, ATP-binding cassette sub-family C member 2; assay: TP_TRANSPORTER: uptake in canalicular membrane vesicles of liver (SD); format: functional, cell membranes, Sprague-Dawley, Canalicular membrane vesicle

T1 sequence (Q63120 whole entry): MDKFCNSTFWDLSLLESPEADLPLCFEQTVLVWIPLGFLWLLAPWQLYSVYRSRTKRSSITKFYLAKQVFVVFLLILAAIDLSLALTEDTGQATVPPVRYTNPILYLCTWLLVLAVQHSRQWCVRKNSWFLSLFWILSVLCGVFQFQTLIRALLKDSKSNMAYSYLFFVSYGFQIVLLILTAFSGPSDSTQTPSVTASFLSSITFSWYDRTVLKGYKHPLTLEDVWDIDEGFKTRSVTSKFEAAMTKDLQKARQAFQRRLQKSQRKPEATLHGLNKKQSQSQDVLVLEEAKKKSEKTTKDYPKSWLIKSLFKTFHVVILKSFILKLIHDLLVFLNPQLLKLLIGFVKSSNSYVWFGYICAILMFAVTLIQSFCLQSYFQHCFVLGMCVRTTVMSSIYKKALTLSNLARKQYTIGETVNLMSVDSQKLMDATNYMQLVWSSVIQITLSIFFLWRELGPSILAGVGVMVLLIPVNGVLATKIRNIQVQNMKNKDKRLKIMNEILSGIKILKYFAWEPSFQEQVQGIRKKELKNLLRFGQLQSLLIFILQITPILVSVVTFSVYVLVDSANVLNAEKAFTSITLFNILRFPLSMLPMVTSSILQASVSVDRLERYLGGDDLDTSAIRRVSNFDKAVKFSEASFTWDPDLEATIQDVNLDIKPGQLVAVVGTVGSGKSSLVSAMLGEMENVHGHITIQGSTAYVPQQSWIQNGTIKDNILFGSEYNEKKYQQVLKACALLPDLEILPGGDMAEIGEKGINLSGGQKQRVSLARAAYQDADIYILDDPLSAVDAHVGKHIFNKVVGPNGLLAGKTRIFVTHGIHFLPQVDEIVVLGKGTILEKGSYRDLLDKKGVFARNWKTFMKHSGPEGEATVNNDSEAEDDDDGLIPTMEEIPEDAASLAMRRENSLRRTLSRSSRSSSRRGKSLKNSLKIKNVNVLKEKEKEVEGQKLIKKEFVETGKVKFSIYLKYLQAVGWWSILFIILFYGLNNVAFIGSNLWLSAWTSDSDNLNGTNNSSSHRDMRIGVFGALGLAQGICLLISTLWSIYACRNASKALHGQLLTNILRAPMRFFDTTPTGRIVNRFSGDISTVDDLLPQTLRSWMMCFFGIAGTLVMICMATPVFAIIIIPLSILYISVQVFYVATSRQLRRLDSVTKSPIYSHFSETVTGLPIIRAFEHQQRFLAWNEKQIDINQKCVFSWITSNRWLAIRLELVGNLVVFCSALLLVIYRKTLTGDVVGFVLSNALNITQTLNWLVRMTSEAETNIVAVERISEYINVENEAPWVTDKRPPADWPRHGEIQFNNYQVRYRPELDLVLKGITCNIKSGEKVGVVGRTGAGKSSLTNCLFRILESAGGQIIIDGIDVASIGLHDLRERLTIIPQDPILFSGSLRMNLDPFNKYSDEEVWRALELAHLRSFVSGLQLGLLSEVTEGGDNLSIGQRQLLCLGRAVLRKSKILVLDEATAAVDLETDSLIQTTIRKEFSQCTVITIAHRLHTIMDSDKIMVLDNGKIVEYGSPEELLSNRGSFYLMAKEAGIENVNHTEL

Row | Compound | Activity [1] | Activity [2] | Ki [3] | Activity [4] | Activity [5]
1 | CCc1c2c(nc3ccc(OC[C@@H]4O[C@H](C(=O)O)[C@@H](O)[C@H](O)[C@H]4O)cc13)-c1cc3c(c(=O)n1C2)COC(=O)[C@]3(O)CC | substrate [+] | substrate [+] | 1.62 µM | – | –
2 | CCc1c2c(nc3ccc(O)cc13)-c1cc([C@@](O)(CC)C(=O)O)c(CO)c(=O)n1C2 | substrate [+] | substrate [+] | 18.3 µM | – | –
3 | CCc1c2c(nc3ccc(OC(=O)N4CCC(N5CCCCC5)CC4)cc13)-c1cc([C@@](O)(CC)C(=O)O)c(CO)c(=O)n1C2 | – | – | 96.6 µM | substrate [+] | substrate [+]
4 | CCc1c2c(nc3ccc(O[C@@H]4O[C@H](C(=O)O)[C@@H](O)[C@H](O)[C@H]4O)cc13)-c1cc([C@@](O)(CC)C(=O)O)c(CO)c(=O)n1C2 | substrate [+] | substrate [+] | 1.03 µM | – | –
